Like-named read-outs stand apart in the source and are kept apart here.
How the values were obtained:
NCI-H1975 = experiment: CCK-8 tumor cell proliferation, NCI-H1975; assay type: cell-based, Human; details: Table 11, designed based on EGFR inhibitors; 96 h
Description: (§1) The tumor cells used herein were cultured in a cell culture medium listed in table 4 at 37° C. in an incubator with 5% CO2. Prior to experimentation, all cells used were correctly identified by STR profiling, and tested negative for mycoplasma through routine screenings.
(§2) IC50 values of the compounds of the present disclosure (including the compounds in Tables 1 and 3, and compounds of examples) were measured using the Meilun Cell Counting Kit-8 kit from Dalian Meilun Biotech Co., Ltd. Assay details are as follows: tumor cells were seeded in a 96-well plate at a density listed in Table 5. After 24 h, 100 μL of the inoculated cells were treated with 0.5 μL of the compounds of the present disclosure (including the compounds in Tables 1 and 3, and compounds of examples) at 10 different successively decreasing concentrations (starting at the highest concentration of 10 μM; 5-fold serial dilutions). After the cells were treated with the compounds of the present disclosure for a period of time, the cell viability detection reagent was added to the culture medium for cell viability assessment according to the instructions provided with the CCK-8 kit. […] The growth inhibition of the compounds of the present disclosure on cells was plotted by Prism Graphpad software, and the IC50 values of the compounds of the present disclosure were calculated therefrom.

CCRF-CEM = experiment: CCK-8 tumor cell proliferation, CCRF-CEM; assay type: cell-based, Human; set-up: IC50 for inhibiting the proliferation of tumor cells, CCRF-CEM: scale not given here; details: for IC50: Homo sapiens, CCRF-CEM, read-out: IC50 inhibiting proliferation of tumor cells, CCRF-CEM; for IC50 for inhibiting the proliferation of tumor cells, CCRF-CEM: Table 8, designed based on ER inhibitors, 96 h
Outline: (§3)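 Authenticated cells, kept at 37 °C and 5% CO2, were given compound a day after plating; doses spanned 10 levels in 5-fold decrements from 10 μM. IC50 values come from CCK-8 viability readings.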

MDA-MB-231 = experiment: CCK-8 tumor cell proliferation, MDA-MB-231; assay type: cell-based, Human; details: Homo sapiens; Table 18, FAK inhibitor based; MDA-MB-231; read-out: IC50 inhibiting proliferation of tumor cells, MDA-MB-231
Outline: as §3

Mino = experiment: CCK-8 tumor cell proliferation, Mino; assay type: cell-based, Human; details: Homo sapiens; Table 18, FAK inhibitor based; Mino; read-out: IC50 inhibiting proliferation of tumor cells, Mino
Outline: as §3

Vcap = experiment: CCK-8 tumor cell proliferation, Vcap; assay type: cell-based, Human; details: for IC50: Homo sapiens, VCaP, Vcap, read-out: IC50 inhibiting proliferation of tumor cells, Vcap; for IC50 for inhibiting the proliferation of tumor cells, Vcap: Table 8, designed based on ER inhibitors, 96 h
Description: as §1, §2

SW620 = experiment: CCK-8 tumor cell proliferation, SW620; assay type: cell-based, Human; details: for IC50: Homo sapiens, SW-620, Table 18, FAK inhibitor based, SW620, read-out: IC50 inhibiting proliferation of tumor cells, SW620; for IC50 for inhibiting the proliferation of tumor cells, SW620: Table 8, designed based on ER inhibitors, 96 h
Outline: as §3

PC-9 = experiment: CCK-8 tumor cell proliferation, PC-9; assay type: cell-based, Human; details: Homo sapiens; Table 18, FAK inhibitor based; PC-9; read-out: IC50 inhibiting proliferation of tumor cells, PC-9
MM.1S = experiment: CCK-8 tumor cell proliferation, MM.1S; assay type: cell-based; details: Homo sapiens, MM1.S; Table 18, FAK inhibitor based; MM.1S; read-out: IC50 inhibiting proliferation of tumor cells, MM.1S
Description: as §1, §2

Jurkat = experiment: CCK-8 tumor cell proliferation, Jurkat; assay type: cell-based, Human; details: Homo sapiens, Table 22, NTRK inhibitor based, read-out: IC50 inhibiting proliferation of tumor cells, Jurkat
Description: as §1, §2

CAL-62 = experiment: CCK-8 tumor cell proliferation, CAL-62; assay type: cell-based, Human; set-up: IC50 for inhibiting the proliferation of tumor cells, CAL-62: scale not given here; details: 72 h
Outline: as §3

[1] = Table 11, designed based on EGFR inhibitors
[2] = Table 8, designed based on ER inhibitors

O=C1CCC(N2Cc3cc(CN4CCN(c5ccc(-c6ccc7c(c6)C(=O)N(C(C(=O)Nc6nccs6)c6cc(F)ccc6O)C7)cc5)CC4)ccc3C2=O)C(=O)N1 (stereo not shown) [GT-03503, 2-(6-(4-(4-((2-(2,6-dioxopiperidin-3-yl)-1-oxoisoindolin-5-yl)methyl)piperazin-1-yl)phenyl)-1-oxoisoindolin-2-yl)-2-(5-fluoro-2-hydroxyphenyl)-N-(thiazol-2-yl)acetamide]
IC50 for inhibiting the proliferation of tumor cells, H1975 (NCI-H1975): A+

CN(Cc1ccc2c(c1)CN(C1CCC(=O)NC1=O)C2=O)C1CCN(c2ccc(Nc3ncc(C(F)(F)F)c(NCc4nccnc4N(C)S(C)(=O)=O)n3)cc2)CC1 (stereo not shown) [GT-03705, N-(3-(((2-((4-(4-(((2-(2,6-dioxopiperidin-3-yl)-1-oxoisoindolin-5-yl)methyl)(methyl)amino)piperidin-1-yl)phenyl)amino)-5-(trifluoromethyl)pyrimidin-4-yl)amino)methyl)pyrazin-2-yl)-N-methylmethanesulfonamide]
IC50 (CCRF-CEM; Table 18, FAK inhibitor based): 0.05 to 0.1 µM | IC50 (MDA-MB-231): < 0.05 µM | IC50 (Mino): < 0.05 µM | IC50 (Vcap; Table 18, FAK inhibitor based): 0.1 to 0.5 µM | IC50 (SW620): 0.1 to 0.5 µM | IC50 (PC-9): 1 to 5 µM

CN(c1nccnc1CNc1nc(Nc2ccc(N3CCC(N4CCN(Cc5ccc6c(c5)CN(C5CCC(=O)NC5=O)C6=O)CC4)CC3)cc2)ncc1C(F)(F)F)S(C)(=O)=O (stereo not shown) [GT-03706, N-(3-(((2-((4-(4-(4-((2-(2,6-dioxopiperidin-3-yl)-1-oxoisoindolin-5-yl)methyl)piperazin-1-yl)piperidin-1-yl)phenyl)amino)-5-(trifluoromethyl)pyrimidin-4-yl)amino)methyl)pyrazin-2-yl)-N-methylmethanesulfonamide]
IC50 (CCRF-CEM; Table 18, FAK inhibitor based): 0.1 to 0.5 µM | IC50 (MDA-MB-231): < 0.05 µM | IC50 (Mino): 0.1 to 0.5 µM | IC50 (Vcap; Table 18, FAK inhibitor based): 0.1 to 0.5 µM | IC50 (SW620): 0.5 to 1 µM | IC50 (PC-9): 1 to 5 µM

CNC(=O)c1ccccc1Nc1cc(Nc2ccc(N3CCN(Cc4cc5c(cc4F)C(=O)N(C4CCC(=O)NC4=O)C5)CC3)cc2OC)ncc1C(F)(F)F (stereo not shown) [GT-03716, 2-((2-((4-(4-((2-(2,6-dioxopiperidin-3-yl)-6-fluoro-1-oxoisoindolin-5-yl)methyl)piperazin-1-yl)-2-methoxyphenyl)amino)-5-(trifluoromethyl)pyridin-4-yl)amino)-N-methylbenzamide]
IC50 (CCRF-CEM; Table 18, FAK inhibitor based): < 0.05 µM | IC50 (MDA-MB-231): < 0.05 µM | IC50 (MM.1S): < 0.05 µM | IC50 (Mino): < 0.05 µM | IC50 (Vcap; Table 18, FAK inhibitor based): < 0.05 µM | IC50 (SW620): < 0.05 µM | IC50 (PC-9): 1 to 5 µM

CN(Cc1ccc2c(c1F)CN(C1CCC(=O)NC1=O)C2=O)C1CCN(c2ccc(Nc3ncc4nc(Nc5ccccc5)n(C5CCCC5)c4n3)cc2)CC1 (stereo not shown) [GT-03858, 3-(5-(((1-(4-((9-cyclopentyl-8-(phenylamino)-9H-purin-2-yl)amino)phenyl)piperidin-4-yl)(methyl)amino)methyl)-4-fluoro-1-oxoisoindolin-2-yl)piperidine-2,6-dione]
IC50 for inhibiting the proliferation of tumor cells, H1975 (NCI-H1975): A+

O=C1CCC(N2Cc3cc(CN4CCN(c5cccc(-c6cnc7ccc(N8CCC[C@@H]8c8cccc(F)c8)nn67)n5)CC4)c(F)cc3C2=O)C(=O)N1 (stereo partly drawn) [GT-03866, 3-(6-fluoro-5-((4-(6-(6-((R)-2-(3-fluorophenyl)pyrrolidin-1-yl)imidazo[1,2-b]pyridazin-3-yl)pyridin-2-yl)piperazin-1-yl)methyl)-1-oxoisoindolin-2-yl)piperidine-2,6-dione]
IC50 (CCRF-CEM; Table 22, NTRK inhibitor based): < 0.05 µM | IC50 (Vcap; Table 22, NTRK inhibitor based): 0.05 to 0.1 µM | IC50 (Jurkat): < 0.05 µM

COc1cc(N2CCC(N(C)Cc3ccc4c(c3)CN(C3CCC(=O)NC3=O)C4=O)CC2)c(C)cc1Nc1ncc(Br)c(Nc2ccc3nccnc3c2P(C)(C)=O)n1 (stereo not shown) [GT-03924, 3-(5-(((1-(4-((5-bromo-4-((5-(dimethylphosphoryl)quinoxalin-6-yl)amino)pyrimidin-2-yl)amino)-5-methoxy-2-methylphenyl)piperidin-4-yl)(methyl)amino)methyl)-1-oxoisoindolin-2-yl)piperidine-2,6-dione]
IC50 for inhibiting the proliferation of tumor cells, H1975 (NCI-H1975): A+ | IC50 for inhibiting the proliferation of tumor cells, CAL-62 (CAL-62; [1]): A+

COc1cc(N2CCC(N(C)Cc3ccc4c(c3F)CN(C3CCC(=O)NC3=O)C4=O)CC2)c(C)cc1Nc1ncc(Br)c(Nc2ccc3nccnc3c2P(C)(C)=O)n1 (stereo not shown) [GT-03925, 3-(5-(((1-(4-((5-bromo-4-((5-(dimethylphosphoryl)quinoxalin-6-yl)amino)pyrimidin-2-yl)amino)-5-methoxy-2-methylphenyl)piperidin-4-yl)(methyl)amino)methyl)-4-fluoro-1-oxoisoindolin-2-yl)piperidine-2,6-dione]
IC50 for inhibiting the proliferation of tumor cells, H1975 (NCI-H1975): A+ | IC50 for inhibiting the proliferation of tumor cells, CAL-62 (CAL-62; [1]): A+

COc1cc(N2CCC(N(C)Cc3cc4c(cc3F)C(=O)N(C3CCC(=O)NC3=O)C4)CC2)c(C)cc1Nc1ncc(Br)c(Nc2ccc3nccnc3c2P(C)(C)=O)n1 (stereo not shown) [GT-03926, 3-(5-(((1-(4-((5-bromo-4-((5-(dimethylphosphoryl)quinoxalin-6-yl)amino)pyrimidin-2-yl)amino)-5-methoxy-2-methylphenyl)piperidin-4-yl)(methyl)amino)methyl)-6-fluoro-1-oxoisoindolin-2-yl)piperidine-2,6-dione]
IC50 for inhibiting the proliferation of tumor cells, H1975 (NCI-H1975): A+

COc1cc(N2CCC(N(C)Cc3cc(F)c4c(c3)CN(C3CCC(=O)NC3=O)C4=O)CC2)c(C)cc1Nc1ncc(Br)c(Nc2ccc3nccnc3c2P(C)(C)=O)n1 (stereo not shown) [GT-03927, 3-(5-(((1-(4-((5-bromo-4-((5-(dimethylphosphoryl)quinoxalin-6-yl)amino)pyrimidin-2-yl)amino)-5-methoxy-2-methylphenyl)piperidin-4-yl)(methyl)amino)methyl)-7-fluoro-1-oxoisoindolin-2-yl)piperidine-2,6-dione]
IC50 for inhibiting the proliferation of tumor cells, H1975 (NCI-H1975): A+ | IC50 for inhibiting the proliferation of tumor cells, CAL-62 (CAL-62; [1]): A+

CCC(=C(c1ccc(O)cc1)c1ccc(N2CCN(Cc3ccc4c(c3F)CN(C3CCC(=O)NC3=O)C4=O)CC2)cc1)c1ccc(O)cc1 (stereo not shown) [GT-04144, 3-(5-((4-(4-(1,2-bis(4-hydroxyphenyl)but-1-en-1-yl)phenyl)piperazin-1-yl)methyl)-4-fluoro-1-oxoisoindolin-2-yl)piperidine-2,6-dione]
IC50 for inhibiting the proliferation of tumor cells, CCRF-CEM (CCRF-CEM): A+ | IC50 for inhibiting the proliferation of tumor cells, Vcap (Vcap): A+ | IC50 for inhibiting the proliferation of tumor cells, SW620 (SW620): A+ | IC50 for inhibiting the proliferation of tumor cells, CAL-62 (CAL-62; [2]): A+

CCC(=C(c1ccc(O)cc1)c1ccc(N2CCN(Cc3cc4c(cc3F)C(=O)N(C3CCC(=O)NC3=O)C4)CC2)cc1)c1ccc(O)cc1 (stereo not shown) [GT-04145, 3-(5-((4-(4-(1,2-bis(4-hydroxyphenyl)but-1-en-1-yl)phenyl)piperazin-1-yl)methyl)-6-fluoro-1-oxoisoindolin-2-yl)piperidine-2,6-dione]
IC50 for inhibiting the proliferation of tumor cells, CCRF-CEM (CCRF-CEM): A+ | IC50 for inhibiting the proliferation of tumor cells, Vcap (Vcap): A+ | IC50 for inhibiting the proliferation of tumor cells, SW620 (SW620): A+ | IC50 for inhibiting the proliferation of tumor cells, CAL-62 (CAL-62; [2]): A+

CCC(=C(c1ccc(O)cc1)c1ccc(N2CCN(Cc3cc(F)c4c(c3)CN(C3CCC(=O)NC3=O)C4=O)CC2)cc1)c1ccc(O)cc1 (stereo not shown) [GT-04146, 3-(5-((4-(4-(1,2-bis(4-hydroxyphenyl)but-1-en-1-yl)phenyl)piperazin-1-yl)methyl)-7-fluoro-1-oxoisoindolin-2-yl)piperidine-2,6-dione]
IC50 for inhibiting the proliferation of tumor cells, CCRF-CEM (CCRF-CEM): A+ | IC50 for inhibiting the proliferation of tumor cells, Vcap (Vcap): A+ | IC50 for inhibiting the proliferation of tumor cells, SW620 (SW620): A+ | IC50 for inhibiting the proliferation of tumor cells, CAL-62 (CAL-62; [2]): A+

Source: patent US20260199323A1, “LIGAND COMPOUNDS FOR E3 UBIQUITIN LIGASE, PROTEIN DEGRADERS DEVELOPED ON BASIS OF LIGAND COMPOUNDS, AND USES THEREOF” (GLUETACS THERAPEUTICS (SHANGHAI) CO., LTD., priority 2021, published 2026)
